Measured values from article PMC6440935, “Characterization and phase I study of CLR457, an orally bioavailable pan-class I PI3-kinase inhibitor” (Investigational New Drugs, 2018).

Legend:
[1] = test system: HBRX2524 human primary breast tumor; assay: HBRX2524 patient-derived breast tumor xenograft in nude mice; assay type: in vivo
Method: (§1) [13] […] [13] […] CLR457 antitumor activity was then evaluated as described previously. […] (Supplemental Methods).
(§2) The significant level was set at p < 0.05.

Rat1-myr-p110α tumors = assay: Rat1-myr-p110α tumor xenograft in nude mice; assay type: in vivo
Method: as §1, §2

For C[C@H]1OC(=O)N(c2cc(-c3cnc(N)nc3C(F)(F)F)nc(N3CCOCC3)n2)[C@H]1CO [CLR457], the “Dose at which tumor regression occurred” value [1] was 20 mg/kg BID and the “Dose at which tumor regression occurred” value (Rat1-myr-p110α tumors) was 20 mg/kg BID.
